The record followed here is ChEMBL document CHEMBL1130864, “Potent and efficacious thienylamidine-incorporated thrombin inhibitors” (Bioorg Med Chem Lett, 1998).

One experiment has as its target Prothrombin (Homo sapiens, UniProt P00734). Description: Compound was evaluated for its inhibitory activity against human thrombin.
The next experiment has as its target T1, Serine protease 1 (Bos taurus, UniProt P00760).
T1 sequence (P00760 whole entry): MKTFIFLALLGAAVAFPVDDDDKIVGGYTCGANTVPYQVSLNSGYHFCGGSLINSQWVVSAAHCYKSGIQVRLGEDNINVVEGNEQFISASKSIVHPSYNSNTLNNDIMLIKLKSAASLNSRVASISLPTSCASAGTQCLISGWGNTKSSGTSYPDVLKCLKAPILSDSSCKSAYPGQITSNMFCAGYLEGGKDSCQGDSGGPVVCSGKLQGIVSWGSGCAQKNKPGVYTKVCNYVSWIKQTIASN
Description: Compound was evaluated for its inhibitory activity against bovine trypsin.

Turning to `CCCc1ccc(S(=O)(=O)N[C@@H](Cc2ccc(C(=N)N)s2)C(=O)N(C)C2CCCC2)cc1`, the figures for the Ki at Prothrombin and on Serine protease 1 were 0.6 nM and 150 nM, respectively.
In the case of `CN(C(=O)[C@H](Cc1ccc(C(=N)NN)s1)NS(=O)(=O)c1ccc2ccccc2c1)C1CCCC1`, the affinity on Prothrombin corresponds to a Ki of 91 nM.
As to `CN(C(=O)[C@H](Cc1ccc(C(=N)N)s1)NS(=O)(=O)c1ccc2ccccc2c1)C1CCCC1`, the results for the Ki on Prothrombin and at Serine protease 1 were 3 nM and 153 nM, respectively.
As for `COc1ccc2cc(S(=O)(=O)N[C@@H](Cc3ccc(C(=N)N)s3)C(=O)N(C)C3CCCC3)ccc2c1`, the Ki (commonly the dissociation constant of the complex between target and ligand, obtained from inhibition or displacement) amounted to 0.49 nM on Prothrombin and 134 nM on Serine protease 1.
In the same order, the values of `CCCc1ccc(S(=O)(=O)N[C@@H](Cc2ccc(C(=N)N)cc2)C(=O)N(C)C2CCCC2)cc1` are 0.84 nM and 2440 nM.
Turning to `CN(C(=O)[C@H](Cc1ccc(C(=N)N)cc1)NS(=O)(=O)c1ccc2ccccc2c1)C1CCCC1`, the results for the Ki at Prothrombin and at Serine protease 1 were 6.8 nM and 16200 nM, respectively.
